From patent US11136297B2, “Compositions and methods for treating cancer” (THE REGENTS OF THE UNIVERSITY OF CALIFORNIA, priority 2016, dated 2021)

Tests used:
[1] = target: T1, H-Ras(M72C) GppNHp binding to Raf-1-RBD (Homo sapiens, UniProt P01112, M72C); experiment: Ras GppNHp in vitro pull down by His6-MBP-Raf-1-RBD; details: H-Ras(M72C) pre-labeled with compound
T1 construct: and H-Ras (residues 1-166) were transformed into Escherichia coli; His6; made in house; host or cells: Escherichia coli BL21(DE3)
Description: Ras GppNHp In Vitro Pull Down Assay by His6-MBP-Raf-1-RBD. For each His6-MBP-Raf-1-RBD in vitro pull down the total volume was 500 μL. Each reaction had the following final composition: Either 20, 80, 200, 400, or 800 nM Ras GppNHp (from 0.2 mg/mL Ras stock), 75 nM BSA (2.5 μg, 5 μL of 0.5 mg/mL BSA stock), 200 nM of His6-MBP-Raf-1-RBD (5.3 μg, 1.2 μL of 4.38 mg/mL stock of His6-MBP-Raf-1-RBDwitt), and Raf Pull Down Buffer to volume (25 mM Tris (pH 7.2), 150 mM NaCl, 5 mM MgCl2, 1% NP-40, 5% glycerol, 20 mM imidazole). Samples were then mixed by gentle rotation at 4° C. for 30 min. While equilibrating, add 50 μL Ni-NTA slurry (Qiagen) to a cellulose acetate spin cup and spin at 5,000 rpm on a tabletop centrifuge for 30 seconds. Wash the beads with 400 μL of Raf Pull Down Buffer to wash away bead storage buffer. Before adding each pull down solution, take 10 μL and save as a loading control sample. To each spin cup filled with washed Ni-NTA beads, add the remaining equilibrated pull down solution, seal the spin cup with parafilm and let rotate at 4° C. for 30 more minutes. After mixing, centrifuge the sample for 30 seconds at 5,000 rpm. Toss flow through. Wash the beads X 5 with 400 μL of Raf Pull Down Buffer. After last wash, centrifuge one last time to remove any excess buffer stuck to the beads. […] Blots were read out using LICOR compatible secondary antibodies. […]

H-Ras(M72C) GDP = H-Ras(M72C) GDP (Homo sapiens, UniProt P01112, M72C); experiment: Intrinsic nucleotide affinity by EDTA catalyzed nucleotide exchange (Raf-1-RBD pull down readout); assay type: biochemical; parameters: and H-Ras (residues 1-166) were transformed into Escherichia coli; His6; made in house; host or cells: Escherichia coli BL21(DE3)
Description: Intrinsic Nucleotide Affinity by EDTA Catalyzed Nucleotide Exchange. For each EDTA catalyzed reaction, the total reaction volume was 500 μL. Each reaction had the following final composition: 100 nM Ras GDP (1 μg, 5 μL of 0.2 mg/mL Ras stock), 75 nM BSA (2.5 μg, 5 μL of 0.5 mg/mL BSA stock), 100 μM total nucleotide concentration (5 μL of various ratios of GDP:GppNHp from 10 mM stock solutions), 10 mM of EDTA (10 μL of 0.5M EDTA pH 8.0), 64 mM of MgCl2 (16 μL of 2M MgCl2 stock), 3 μM of His6-MBP-Raf-1-RBDwitt (80 μg, 18.3 μL of 4.38 mg/mL stock of His6-MBP-Raf-1-RBDwitt), and Raf Pull Down Buffer to volume (25 mM Tris (pH 7.2), 150 mM NaCl, 5 mM MgCl2, 1% NP-40, 5% glycerol, 20 mM imidazole). Prior to initiating the EDTA catalyzed nucleotide exchange, the Ras, BSA, nucleotide, and Raf Pull Down Buffer were mixed by pipette on ice. To each tube, the EDTA was added, sample was inverted X 3, and then placed in a pre-warmed tube rack at 30° C. The exchange was allowed to occur at 30° C. for 15 minutes, inverting each tube X 3 every 5 minutes. Once the 15 minutes of exchange was complete, MgCl2 was added to each tube and inverted X 3 and placed on ice for 15 minutes. During the quenching on ice, add 100 μL Ni-NTA slurry (Qiagen) to a cellulose acetate spin cup and spin at 5,000 rpm on a tabletop centrifuge for 30 seconds. Wash the beads with 400 μL of Raf Pull Down Buffer to wash away bead storage buffer. Before adding the beads and His6-tagged Raf-1-RBDwitt, take a 10 μL sample as a loading control and quench it with 5 μL 5×SDS loading buffer. To each spin cup filled with washed Ni-NTA beads, add the quenched EDTA catalyzed exchange reaction and the His6-tagged Raf-1-RBDwitt. Seal the spin cup with parafilm and let rotate at 4° C. for 1 h. After mixing, centrifuge the sample for 30 seconds at 5,000 rpm. Toss flow through. Wash the beads×5 with 400 μL of Raf Pull Down Buffer. After last wash, centrifuge one last time to remove any excess buffer stuck to the beads. To each cup, add 50 μL of 5×SDS loading buffer and mix by vortexing. Let the buffer sit on the beads for 5 minutes and then elute into a fresh tube by centrifuging at 5000 rpm for 1.5 minutes. Load 10 μL of each loading control sample and 25 μL of each eluted pull down onto a SDS-PAGE gel and transfer to a nitrocellulose blot for Western Blot analysis. Block with 5% BSA TBS buffer and then blot with pan Ras primary antibody at a 1:500 dilution in 5% BSA in TBST (Cell Signaling #3965). Blots were read out using LICOR compatible secondary antibodies and quantified. Signal from each GDP-only (i.e. 0% GppNHp) exchange was subtracted as background from the 20%, 50%, and 66% GppNHp pull-down signals for each protein construct. The signal for the GppNHp only lane (i.e. 100% GppNHp) was normalized to 1 and all other signals were made relative to this band within each protein construct tested.

[2] = target: T2, H-Ras(M72C) GDP binding to SOScat (Homo sapiens, UniProt P01112, M72C); experiment: SOScat pull-down of H-Ras(M72C) GDP; details: SOScat pull-down of H-Ras(M72C) GDP at various concentrations of H-Ras
T2 construct: and H-Ras (residues 1-166) were transformed into Escherichia coli; His6; made in house; host or cells: Escherichia coli BL21(DE3)

COc1ccc(-n2ncc(C(=O)NCCCSSCCN(C)C)c2C(F)(F)F)cc1 [Compound 2C07, N-(3-((2-(dimethylamino)ethyl)disulfanyl)propyl)-1-(4-methoxyphenyl)-5-(trifluoromethyl)-1H-pyrazole-4-carboxamide]
Raf-1-RBD binding (pull down), labeled vs unlabeled H-Ras(M72C) [1]: no significant difference in Raf-1-RBD binding
Normalized Average (Nucleotide Exchange PD Assay) (H-Ras(M72C) GDP; H-Ras(M72C) 2C07, GppNHp only, normalized to 1): 1.00
Normalized Average (Nucleotide Exchange PD Assay) (H-Ras(M72C) GDP; H-Ras(M72C) 2C07, GTP:GDP 0, background subtracted): 0.00
Normalized Average (Nucleotide Exchange PD Assay) (H-Ras(M72C) GDP; H-Ras(M72C) 2C07, GTP:GDP 0.2, relative to GppNHp-only signal): 0.03
Normalized Average (Nucleotide Exchange PD Assay) (H-Ras(M72C) GDP; H-Ras(M72C) 2C07, GTP:GDP 0.5, relative to GppNHp-only signal): 0.12
Normalized Average (Nucleotide Exchange PD Assay) (H-Ras(M72C) GDP; H-Ras(M72C) 2C07, GTP:GDP 0.67, relative to GppNHp-only signal): 0.13
nucleotide preference of 2C07 bound Ras (H-Ras(M72C) GDP; varying ratios of GDP:GppNHp, EDTA catalyzed exchange): nucleotide preference for GDP over GppNHp
SOS binding [2]: inhibits SOS binding
